Test results taken from patent US20240400555A1 (Initial Therapeutics, Inc., priority 2023, published 2024).

What follows are molecules tested on HCT-116 Firefly-luciferase reporter cells (assay: Cellular c-MYC Reporter Assay). Details: Homo sapiens; untitled table following Table 8a; HCT-116 Firefly-luciferase reporter cells, 24 h; read-out: pIC50 (converted).
Format: cell-based
In short: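 Reporter cells seeded at 5e4 cells/mL in McCoy's 5A with 10% FBS and G418, dosed after 4–6 h at 0.2% final DMSO. After 24 h at 37 °C, luciferase luminescence was read with ONE-Glo.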

Row | IC50 [nM] | SMILES
1 | 5010 | CN(C)C(=O)c1cccnc1N(C(=O)c1ccc(-n2nnc3cccnc32)cc1F)[C@@H]1CCCNC1 [Example 247, (R)-2-(4-(3H-[1,2,3]triazolo[4,5-b]pyridin-3-yl)-2-fluoro-N-(piperidin-3-yl)benzamido)-N,N-dimethylnicotinamide]
2 | 1260 | O=C(c1ccc(-c2cccc3cnccc23)cc1F)N(c1cc2ccccc2cn1)[C@@H]1CCCNC1 [Example 291, (R)-2-fluoro-N-(isoquinolin-3-yl)-4-(isoquinolin-5-yl)-N-(piperidin-3-yl)benzamide]
3 | 7080 | Cc1cccc2ccnc(N(C(=O)c3ccc(Nc4nccc5cccnc45)cc3F)[C@@H]3CCCNC3)c12 [Example 276, (R)-4-((1,7-naphthyridin-8-yl)amino)-2-fluoro-N-(8-methylisoquinolin-1-yl)-N-(piperidin-3-yl)benzamide]
4 | 5750 | Cc1cccc2ccnc(N(C(=O)N3CCC4(CC3)OCCc3ccsc34)[C@@H]3CCCNC3)c12 [Example 265, (R)—N-(8-methylisoquinolin-1-yl)-N-(piperidin-3-yl)-4′,5′-dihydrospiro[piperidine-4,7′-thieno[2,3-c]pyran]-1-carboxamide]
5 | > 20000 | Cc1cccc2ccnc(N(C(=O)c3ccc(-n4nnc5cccnc54)cc3)[C@@H]3CC[C@@H](C)NC3)c12 [Example 226, 4-(3H-[1,2,3]triazolo[4,5-b]pyridin-3-yl)-N-(8-methylisoquinolin-1-yl)-N-((3R,6R)-6-methylpiperidin-3-yl)benzamide]
6 | 7760 | Cc1cccc2ccnc(N(C(=O)N3CCC(O)(c4ccccc4OCc4ccccc4)CC3)[C@@H]3CCCNC3)c12 [Example 297, (R)-4-(2-(benzyloxy)phenyl)-4-hydroxy-N-(8-methylisoquinolin-1-yl)-N-(piperidin-3-yl)piperidine-1-carboxamide]
7 | > 20000 | Cc1cccc2ccnc(N(C(=O)c3ccc(-n4nnc5cccnc54)cc3)[C@H]3CCNC3)c12 [Example 231, (S)-4-(3H-[1,2,3]triazolo[4,5-b]pyridin-3-yl)-N-(8-methylisoquinolin-1-yl)-N-(pyrrolidin-3-yl)benzamide]

Second part, the molecule before the results:

Row | SMILES | IC50 [nM]
8 | Cc1nnc(-c2ccc(C(=O)N(c3nccc4cccc(C)c34)[C@@H]3CCCNC3)c(F)c2)s1 [Example 127, (R)-2-fluoro-4-(5-methyl-1,3,4-thiadiazol-2-yl)-N-(8-methylisoquinolin-1-yl)-N-(piperidin-3-yl) benzamide] | 339
9 | CCOC(=O)/C=C/c1ccc2c(N(C(=O)c3ccc(-n4nnc5cccnc54)cc3F)[C@@H]3CCCNC3)nccc2c1 [Example 98, ethyl (R,E)-3-(1-(4-(3H-[1,2,3]triazolo[4,5-b]pyridin-3-yl)-2-fluoro-N-(piperidin-3-yl)benzamido)isoquinolin-6-yl)acrylate] | 759
10 | Cc1cccc2ccnc(N(C(=O)N3CCC(Oc4ccccc4)CC3)[C@@H]3CCCNC3)c12 [Example 189, (R)—N-(8-methylisoquinolin-1-yl)-4-phenoxy-N-(piperidin-3-yl)-1-carboxamide] | 5620
11 | O=C(c1ccc(I)cc1F)N(c1nccc2cccc(Cl)c12)[C@@H]1CCCNC1 [Example 141, (R)—N-(8-chloroisoquinolin-1-yl)-2-fluoro-4-iodo-N-(piperidin-3-yl)benzamide] | 1910
12 | COC(=O)c1ccc2nnn(-c3ccc(C(=O)N(c4nccc5cccc(C)c45)[C@@H]4CCCNC4)c(F)c3)c2n1 [Example 140, methyl (R)-3-(3-fluoro-4-((8-methylisoquinolin-1-yl)(piperidin-3-yl)carbamoyl)phenyl)-3H-[1,2,3]triazolo[4,5-b]pyridine-5-carboxylate] | 240
13 | Cc1cccc2ccnc(N(C(=O)c3ccc(-c4nnn(C)n4)cc3F)[C@@H]3CCCNC3)c12 [Example 125, (R)-2-fluoro-4-(2-methyl-2H-tetrazol-5-yl)-N-(8-methylisoquinolin-1-yl)-N-(piperidin-3-yl) benzamide] | 24.5
14 | Cc1cccc2ccnc(N(C(=O)c3ccc(CO)cc3F)[C@@H]3CCCNC3)c12 [Example 168, (R)-2-fluoro-4-(hydroxymethyl)-N-(8-methylisoquinolin-1-yl)-N-(piperidin-3-yl)benzamide] | 5250
15 | Cc1nnn(-c2ccc(C(=O)N(c3nccc4cccc(C)c34)[C@@H]3CCCNC3)c(F)c2)n1 [Example 195, (R)-2-fluoro-4-(5-methyl-2H-tetrazol-2-yl)-N-(8-methylisoquinolin-1-yl)-N-(piperidin-3-yl) benzamide] | 87.1
16 | O=C(c1ccc(-n2nnc3cccnc32)cc1F)N(c1ncccc1-c1cnn(CCO)c1)[C@@H]1CCCNC1 [Example 116, (R)-4-(3H-[1,2,3]triazolo[4,5-b]pyridin-3-yl)-2-fluoro-N-(3-(1-(2-hydroxyethyl)-1H-pyrazol-4-yl)pyridin-2-yl)-N-(piperidin-3-yl)benzamide] | 2570
17 | Cc1cccc2ccnc(N(C(=O)c3ccc(Nc4cccn(C)c4=O)cc3F)[C@@H]3CCCNC3)c12 [Example 131, (R)-2-fluoro-4-((1-methyl-2-oxo-1,2-dihydropyridin-3-yl)amino)-N-(8-methylisoquinolin-1-yl)-N-(piperidin-3-yl)benzamide] | 1910
18 | O=C(c1ccc(-n2nnc3cccnc32)cc1F)N(c1nccc2cc(CO)ccc12)[C@@H]1CCCNC1 [Example 146, (R)-4-(3H-[1,2,3]triazolo[4,5-b]pyridin-3-yl)-2-fluoro-N-(6-(hydroxymethyl)isoquinolin-1-yl)-N-(piperidin-3-yl)benzamide] | 562
19 | Cn1cc(-c2cccnc2N(C(=O)c2ccc(-n3nnc4cccnc43)cc2F)[C@@H]2CCCNC2)cn1 [Example 115, (R)-4-(3H-[1,2,3]triazolo[4,5-b]pyridin-3-yl)-2-fluoro-N-(3-(1-methyl-1H-pyrazol-4-yl)pyridin-2-yl)-N-(piperidin-3-yl)benzamide] | 550
20 | COC(=O)c1ccc2ccnc(N(C(=O)c3ccc(-n4nnc5cccnc54)cc3F)[C@@H]3CCCNC3)c2c1 [Example 129, methyl (R)-1-(4-(3H-[1,2,3]triazolo[4,5-b]pyridin-3-yl)-2-fluoro-N-(piperidin-3-yl)benzamido)isoquinoline-7-carboxylate] | 339
21 | O=C(c1ccc(-n2nnc3cccnc32)cc1F)N(c1ncccc1-c1cn[nH]c1)[C@@H]1CCCNC1 [Example 176, (R)—N-(3-(1H-pyrazol-4-yl)pyridin-2-yl)-4-(3H-[1,2,3]triazolo[4,5-b]pyridin-3-yl)-2-fluoro-N-(piperidin-3-yl)benzamide] | 933
22 | CCOC(=O)/C=C/c1ccc2ccnc(N(C(=O)c3ccc(-n4nnc5cccnc54)cc3F)[C@@H]3CCCNC3)c2c1 [Example 130, ethyl (R,E)-3-(1-(4-(3H-[1,2,3]triazolo[4,5-b]pyridin-3-yl)-2-fluoro-N-(piperidin-3-yl)benzamido)isoquinolin-7-yl)acrylate] | 2290
23 | CC(C)(C)[Si](C)(C)OC/C=C/c1cc2c(N(C(=O)c3ccc(-n4nnc5cccnc54)cc3F)[C@@H]3CCCNC3)nccc2s1 [Example 99, (R,E)-4-(3H-[1,2,3]triazolo[4,5-b]pyridin-3-yl)-N-(2-(3-((tert-butyldimethylsilyl)oxy)prop-1-en-1-yl)thieno[3,2-c]pyridin-4-yl)-2-fluoro-N-(piperidin-3-yl)benzamide] | 2000
